Target: T1, SSTR4 (Homo sapiens, UniProt P31391)
T1 construct: host or cells: CHO-K1
Experiment: Inhibition of forskolin stimulated cAMP in CHO-K1 cells overexpressing SSTR4
Format: cell-based
Conditions: read-out: SSTR4 Activity pEC50 (converted)
Procedure: Inhibition of Forskolin Stimulated cAMP in Cells Overexpressing SSTR4
This cell-based assay measures the ability of compounds to inhibit forskolin stimulated cAMP in CHO-K1 cells overexpressing SSTR4. CHO-K1 cells overexpressing SSTR4 (CHO-SSTR4) are purchased from DiscoveRx (product code 95-0059C2). The CHO-SSTR4 cells are maintained in F12K media with 10% Fetal Bovine Serum (Hyclone), 1% Pen/Strep (Life Technologies), and 800 μg/mL G418 (Life Technologies). To perform the assay, 3000 cells are plated per well in white 384-well plate (Corning 3570) in 50 μL complete media and the cells are allowed to attach for 16 hours in a 37° C., 5% CO2 incubator. The next day, the culture media is removed from the cells and the cells are washed (added then removed) with Krebs Ringer Buffer (ZenBio, KRB-1000 mL). Test compounds are suspended in DMSO and diluted in stimulation buffer: Krebs Ringer Buffer plus 0.5% BSA (Roche), 300 μM IBMX (Sigma), and 350 nM forskolin (Sigma). The cells are incubated in 10 μL compound/stimulation buffer for 30 minutes at room temperature. Cellular cAMP levels are detected with a HTRF LANCE Ultra cAMP kit (Perkin Elmer, catalog number TRF0264).
The assay is performed in accordance with the manufacturer's instructions. Five μL of diluted Eu-W8044 labeled streptavidin (dilution: 1:50 in cAMP Detection Buffer) is added to each well. Then 5 μL of diluted biotin cAMP (dilution: 1:150 in cAMP Detection Buffer) is added to each well. The plates are covered and allowed to incubate for 60 minutes at room temperature on a shaker. HTRF (665 nm/615 nm) is read on a Perkin Elmer ENVISION plate reader. The pEC50 values are generated using Activity Base for Screening Data Management.

T1 sequence (P31391 whole entry): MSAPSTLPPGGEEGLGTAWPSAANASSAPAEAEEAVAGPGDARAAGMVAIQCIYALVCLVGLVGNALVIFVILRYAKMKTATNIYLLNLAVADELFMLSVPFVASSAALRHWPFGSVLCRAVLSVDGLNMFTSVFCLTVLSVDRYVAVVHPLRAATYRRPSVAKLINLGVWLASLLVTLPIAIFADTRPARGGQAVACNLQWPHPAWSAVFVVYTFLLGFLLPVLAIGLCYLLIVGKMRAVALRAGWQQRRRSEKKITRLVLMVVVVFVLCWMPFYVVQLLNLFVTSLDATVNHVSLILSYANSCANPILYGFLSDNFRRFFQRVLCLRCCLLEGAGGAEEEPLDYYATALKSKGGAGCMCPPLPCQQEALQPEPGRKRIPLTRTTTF

Question: Which EC50 does the source give for `CC(C)(COc1ncccc1C(F)(F)F)NC(=O)C[C@@H]1CCCN1CCF` [Example 52, (S)-2-(1-(2-fluoroethyl)pyrrolidin-2-yl)-N-(2-methyl-1-((3-(trifluoromethyl)pyridin-2-yl)oxy)propan-2-yl)acetamide] here?
Answer: 501 nM

Question: Which EC50 does the source give for `CC(C)(COc1ncccc1C(F)(F)F)NC(=O)C[C@@H]1CCCN1C1CC1` [Example 53, (S)-2-(1-cyclopropylpyrrolidin-2-yl)-N-(2-methyl-1-((3-(trifluoromethyl)pyridin-2-yl)oxy)propan-2-yl)acetamide] here?
Answer: 63.1 nM

Question: `Cc1cccnc1OCC1(NC(=O)C[C@@H]2CCCN2C)CC1` [Example 54, (S)-N-(1-(((3-methylpyridin-2-yl)oxy)methyl)cyclopropyl)-2-(1-methylpyrrolidin-2-yl)acetamide] was tested. Which EC50 did it give?
Answer: 251 nM

Question: With `Cc1cccnc1OCC1(NC(=O)C[C@@H]2CCCN2C)CCCC1` [Example 56, (S)-N-(1-(((3-methylpyridin-2-yl)oxy)methyl)cyclopentyl)-2-(1-methylpyrrolidin-2-yl)acetamide] as the compound, how does the EC50 read?
Answer: 200 nM

Question: `CC(C)(COc1ncccc1C(F)(F)F)NC(=O)C[C@H]1CCCN1CCF` [Example 58, (R)-2-(1-(2-fluoroethyl)pyrrolidin-2-yl)-N-(2-methyl-1-((3-(trifluoromethyl)pyridin-2-yl)oxy)propan-2-yl)acetamide] was tested. Which EC50 did it give?
Answer: 39.8 nM

Question: For `CC(C)(COc1ncccc1C(F)(F)F)NC(=O)C[C@H]1CCCN1C1CC1` [Example 59, (R)-2-(1-cyclopropylpyrrolidin-2-yl)-N-(2-methyl-1-((3-(trifluoromethyl)pyridin-2-yl)oxy)propan-2-yl)acetamide], which EC50 is on record?
Answer: 15.8 nM

Question: With `C[C@H](NC(=O)CC1CCCCN1C)c1ccc(F)cc1` (stereo partly drawn) [Example 61, N-((S)-1-(4-fluorophenyl)ethyl)-2-(1-methylpiperidin-2-yl)acetamide] as the compound, how does the EC50 read?
Answer: 158 nM

Question: `CCN1CCCC1CC(=O)NC1(COc2ncccc2C)CCC1` (stereo not shown) [Example 64, 2-(1-ethylpyrrolidin-2-yl)-N-(1-(((3-methylpyridin-2-yl)oxy)methyl)cyclobutyl)acetamide] was tested. Which EC50 did it give?
Answer: 100 nM

Question: `CCN1CCCC1CC(=O)NC1(COc2ncccc2C)CCCC1` (stereo not shown) [Example 65, 2-(1-ethylpyrrolidin-2-yl)-N-(1-(((3-methylpyridin-2-yl)oxy)methyl)cyclopentyl)acetamide] was tested. Which EC50 did it give?
Answer: 251 nM

Question: For `Cc1cccnc1OCC(C)(C)NC(=O)CC1CCC(C)N1C` (stereo not shown) [Example 68, 2-(1,5-dimethylpyrrolidin-2-yl)-N-(2-methyl-1-((3-methylpyridin-2-yl)oxy)propan-2-yl)acetamide], which EC50 is on record?
Answer: 25.1 nM

Question: `Cc1cccnc1OCC(C)(C)NC(=O)CC1CCCCN1C` (stereo not shown) [Example 69, N-(2-methyl-1-((3-methylpyridin-2-yl)oxy)propan-2-yl)-2-(1-methylpiperidin-2-yl)acetamide] was tested. Which EC50 did it give?
Answer: 25.1 nM

Question: With `CN1CCC[C@H]1CC(=O)NC(C)(C)COc1ncccc1OC(F)(F)F` [Example 72, (S)-N-(2-methyl-1-((3-(trifluoromethoxy)pyridin-2-yl)oxy)propan-2-yl)-2-(1-methylpyrrolidin-2-yl)acetamide] as the compound, how does the EC50 read?
Answer: 20 nM

Question: For `CN1CCC[C@H]1CC(=O)NC(C)(C)COc1ncccc1C1CC1` [Example 73, (S)-N-(1-((3-cyclopropylpyridin-2-yl)oxy)-2-methylpropan-2-yl)-2-(1-methylpyrrolidin-2-yl)acetamide], which EC50 is on record?
Answer: 39.8 nM

Question: `COc1ccccc1CC1(NC(=O)CC2CCCCN2C)CC1` (stereo not shown) [Example 74, N-(1-(2-methoxybenzyl)cyclopropyl)-2-(1-methylpiperidin-2-yl)acetamide] was tested. Which EC50 did it give?
Answer: 31.6 nM

Question: How did the EC50 turn out when `COc1ncccc1CC1(NC(=O)CC2CCCCN2C)CC1` (stereo not shown) [Example 79, N-(1-((2-methoxypyridin-3-yl)methyl)cyclopropyl)-2-(1-methylpiperidin-2-yl)acetamide] was run?
Answer: 398 nM

Question: Which EC50 does the source give for `Cc1cccc(CC2(NC(=O)C[C@@H]3CCCN3C)CC2)c1` [Example 81, (S)-N-(1-(3-methylbenzyl)cyclopropyl)-2-(1-methylpyrrolidin-2-yl)acetamide] here?
Answer: 398 nM

Question: With `CN1CCC[C@H]1CC(=O)NC(C)(C)c1cccc(F)c1F` [Example 82, (S)-N-(2-(2,3-difluorophenyl)propan-2-yl)-2-(1-methylpyrrolidin-2-yl)acetamide] as the compound, how does the EC50 read?
Answer: 316 nM

Question: For `CN1CCC[C@H]1CC(=O)NC(C)(C)c1cccc(Cl)c1F` [Example 83, (S)-N-(2-(3-chloro-2-fluorophenyl)propan-2-yl)-2-(1-methylpyrrolidin-2-yl)acetamide], which EC50 is on record?
Answer: 251 nM

Question: How did the EC50 turn out when `CN1CCC[C@@H]1CC(=O)NC(C)(C)COc1ncccc1C(F)F` [Example 84, (R)-N-(1-((3-(difluoromethyl)pyridin-2-yl)oxy)-2-methylpropan-2-yl)-2-(1-methylpyrrolidin-2-yl)acetamide] was run?
Answer: 100 nM

Question: For `CN1CCC[C@H]1CC(=O)NC(C)(C)COc1ncccc1C(F)F` [Example 85], which EC50 is on record?
Answer: 200 nM

Question: How did the EC50 turn out when `Cc1cccc(C(C)(C)NC(=O)C[C@@H]2CCCN2C)c1F` [Example 86, (S)-N-(2-(2-fluoro-3-methylphenyl)propan-2-yl)-2-(1-methylpyrrolidin-2-yl)acetamide] was run?
Answer: 251 nM

Question: Which EC50 does the source give for `Cc1cccc(C(C)(C)NC(=O)C[C@H]2CCCN2C)c1F` [Example 87, (R)-N-(2-(2-fluoro-3-methylphenyl)propan-2-yl)-2-(1-methylpyrrolidin-2-yl)acetamide] here?
Answer: 316 nM

Question: With `Cc1c(F)cccc1C(C)(C)NC(=O)C[C@@H]1CCCN1C` [Example 89, (S)-N-(2-(3-fluoro-2-methylphenyl)propan-2-yl)-2-(1-methylpyrrolidin-2-yl)acetamide] as the compound, how does the EC50 read?
Answer: 126 nM

Question: For `Cc1c(F)cccc1C(C)(C)NC(=O)C[C@H]1CCCN1C` [Example 90, (R)-N-(2-(3-fluoro-2-methylphenyl)propan-2-yl)-2-(1-methylpyrrolidin-2-yl)acetamide], which EC50 is on record?
Answer: 63.1 nM

Question: Which EC50 does the source give for `CN1CCC[C@H]1CC(=O)NC(C)(C)c1cccc(F)c1Cl` [Example 93, (S)-N-(2-(2-chloro-3-fluorophenyl)propan-2-yl)-2-(1-methylpyrrolidin-2-yl)acetamide] here?
Answer: 63.1 nM

Question: How did the EC50 turn out when `COc1cc(F)ccc1[C@H](C)NC(=O)C[C@@H]1CCCN1C` [Example 95, N-((S)-1-(4-fluoro-2-methoxyphenyl)ethyl)-2-((S)-1-methylpyrrolidin-2-yl)acetamide] was run?
Answer: 794 nM

Question: With `CN1CCC(F)(F)C1CC(=O)NC(C)(C)c1nccc2ccccc12` (stereo not shown) [Example 97, 2-(3,3-difluoro-1-methylpyrrolidin-2-yl)-N-(2-(isoquinolin-1-yl)propan-2-yl)acetamide] as the compound, how does the EC50 read?
Answer: 1000 nM

Question: `Cc1cccc2c(C(C)(C)NC(=O)CC3N(C)CCC3(F)F)nccc12` (stereo not shown) [Example 98, 2-(3,3-difluoro-1-methylpyrrolidin-2-yl)-N-(2-(5-methylisoquinolin-1-yl)propan-2-yl)acetamide] was tested. Which EC50 did it give?
Answer: 158 nM

Question: `CN1CCC(F)(F)C1CC(=O)NC(C)(C)c1nccc2occc12` (stereo not shown) [Example 99, 2-(3,3-difluoro-1-methylpyrrolidin-2-yl)-N-(2-(furo[3,2-c]pyridin-4-yl)propan-2-yl)acetamide] was tested. Which EC50 did it give?
Answer: 3980 nM

Question: With `Cc1ccnc(OCC(C)(C)NC(=O)C[C@@H]2CCCN2C)c1` [Example 102, (S)-N-(2-methyl-1-((4-methylpyridin-2-yl)oxy)propan-2-yl)-2-(1-methylpyrrolidin-2-yl)acetamide] as the compound, how does the EC50 read?
Answer: 631 nM

Question: For `Cc1ccc(OCC(C)(C)NC(=O)C[C@@H]2CCCN2C)nc1` [Example 103, (S)-N-(2-methyl-1-((5-methylpyridin-2-yl)oxy)propan-2-yl)-2-(1-methylpyrrolidin-2-yl)acetamide], which EC50 is on record?
Answer: 501 nM

— patent US20230150981A1, “N-HETEROARYLALKYL-2-(HETEROCYCLYL AND HETEROCYCLYLMETHYL) ACETAMIDE DERIVATIVES AS SSTR4 AGONISTS” (Takeda Pharmaceutical Compnay Limited, priority 2020, published 2023)
